Measurements taken from patent US8778985B2, “Inhibiting amyloid-beta peptide/rage interaction at the blood-brain barrier” (The University of Rochester, priority 2006, dated 2014).

Key:
[1] = target: T1, RAGE (Homo sapiens, UniProt Q15109); test: 125I-Aβ40 specific binding on RAGE-transfected CHO cells at 4° C., competitive inhibition
T1 construct: expressed in transfected cells; host or cells: Chinese hamster ovary (CHO) cells
Description: Data are mean±s.e.m., n=3 per group.
All three are tertiary amides substituted with a large, hydrophobic hydrocarbon moiety and a monosubstituted aromatic moiety. Linkage to the monosubstituted aromatic is either direct (FPS2) or via an alkyl (FPS1) or heteroaromatic (FPS3) spacer. Two of the compounds also feature a highly electron-poor substituted benzene ring (3-nitro, 4-chloro for FPS1; 3,5-dinitro for FPS2).

[2] = test system: RAGE-transfected CHO cells; test: Thiobarbituric acid reactive substance (TBARS) generation (Aβ/RAGE-induced oxidant stress) in RAGE-transfected CHO cells; format: cell-based; conditions: 1 μM Aβ40; FPS2 at 50 nM or 500 nM
[3] = test system: RAGE-transfected CHO cells; test: NF-κB activation (translocation) in RAGE-transfected CHO cells; format: cell-based; conditions: 1 μM Aβ40; FPS2 at 50 nM or 500 nM
[4] = test system: RAGE-mediated transport of Aβ40 across the BBB; test: Arterial vascular brain perfusion: transport of 125I-Aβ40 across the BBB in APPsw+/− mice; format: in vivo; conditions: Mus musculus, read-out: inhibition of Aβ transport across the BBB
Description: The statistical significance of differences is shown. Data are mean±s.e.m., n=3-4 per group.
An arterial vascular brain perfusion technique (LaRue et al., 2004) was used to determine whether FPS2 blocks RAGE-mediated transport of circulating ^125I-labeled Aβ40 across the BBB in 4-6 month old APPsw^+/− mice. We and others have reported that expression of RAGE in brain microvessels in these mice is increased by about 5-fold compared to the littermate controls (Deane et al., 2003; Donahue et al., 2004).

[5] = test system: APPsw+/− mice; test: Thioflavin S-positive amyloid load in brain, chronic treatment of APPsw+/− mice; format: in vivo; conditions: 1 mg/kg per day i.p. for two months
Procedure: Amyloid load hippocampus and cortex of APPsw^+/− mice treated with vehicle (open bars) or FPS2 (closed bars). FPS2 (1 mg/kg per day), was administered intraperitoneally to mice for two months beginning at the age of 8 months. Values are means±s.e.m, n=5-6 per group.
In the chronic-treated mice, Aβ40 and Aβ42 levels in the hippocampus were reduced by about 85% and 90%, respectively, in the FPS2-treated mice compared to vehicle (FIG. 6A). Similarly, Aβ40 and Aβ42 levels in the cortex were reduced by about 70% and 80%, respectively (FIG. 6B).
Compounds were synthesized in parallel using semiautomated chemical reactions. […] Purity was assessed by reverse-phase gradient HPLC. […] After two months of treatment, (i) the cerebral blood flow response to brain activation (whisker stimulation) was measured and (ii) behavioral tests including operant learning, novel object location (NOL), and novel object recognition (NOR) were performed. After these functional tests, the mice were sacrificed and their brains analyzed for Aβ40, Aβ42, and amyloid levels. • CBF response to brain activation. The CBF response to vibrissal stimulation in anesthetized APPsw^+/− mice was measured by using laser-doppler flowmetry (Transonic Systems, BLF 21 D). […] The time exploring the novel and familiar objects was scored by hand to provide discrimination. • Human Aβ40 and Aβ42. […]

T1 sequence (Q15109 23-404): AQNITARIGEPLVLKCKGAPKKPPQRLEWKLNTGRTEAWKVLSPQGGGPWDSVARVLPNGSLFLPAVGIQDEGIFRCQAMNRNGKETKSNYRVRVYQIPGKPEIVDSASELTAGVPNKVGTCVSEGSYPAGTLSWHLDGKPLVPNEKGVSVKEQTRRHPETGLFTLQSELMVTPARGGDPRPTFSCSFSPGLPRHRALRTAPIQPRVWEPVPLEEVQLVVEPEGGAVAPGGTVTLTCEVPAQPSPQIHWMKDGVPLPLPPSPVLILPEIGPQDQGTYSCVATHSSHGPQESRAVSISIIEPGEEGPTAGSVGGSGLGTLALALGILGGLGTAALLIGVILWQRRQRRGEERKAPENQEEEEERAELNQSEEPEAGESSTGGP

## CC(CC(=O)NCCCN(C(=O)c1cc([N+](=O)[O-])cc([N+](=O)[O-])c1)c1ccccc1)CC(C)(C)C (stereo not shown) [FPS2, 3,5-dinitro-N-phenyl-N-[3-[(3,5,5-trimethyl-1-oxohexyl)amino]propyl]-(9Cl)-benzamide]
[1]
  Ki/Kd ratio (Ki compound's inhibitory constant, Kd Aβ-RAGE binding constant): 0.45
[1]; competitive
  inhibitory constant (Ki) of Aβ-RAGE binding: low
[2]
  TBARS generation: inhibited
[3]
  NF-κB activation: inhibited
[4]
  inhibition at 4.8 µg/mL: 100%
[5]
  reduction of thioflavin-S positive areas (amyloid load) in the cortex compared to vehicle: about 85%
  reduction of thioflavin-S positive areas (amyloid load) in the hippocampus compared to vehicle: about 85%
